According to paper PMC5578202, “Bioaccessibility, Intestinal Permeability and Plasma Stability of Isorhamnetin Glycosides from Opuntia ficus-indica (L.)” (International Journal of Molecular Sciences, 2017):
Read-outs that look alike come from different tables or passages of the source.

Tests used:
[1] = Permeability across Caco-2/HT-29 (75:25) co-culture monolayer; format: in vitro ADME, human; conditions: human, pH 7.4
Procedure: (§1) Caco-2 and HT-29 cell lines were obtained from ATCC (American Tissue Culture Collection, Rockville, MD, USA). Cells were cultured in DMEM-F12 supplemented with 10% fetal bovine serum and were maintained at 37 °C in 5% CO2. Before the start of the permeability experiments, the cytotoxicity of isorhamnetin and the O. ficus-indica extract on Caco-2/HT-29 (75:25) co-culture were tested to ensure that the viability of the cells was over 90%. Permeability experiments were performed according to Xie et al. and Hubatsch et al. with slight modifications. Caco-2 and HT-29 co-culture cell monolayer (75:25) were seeded on 6-well transwell plates, with inserts having a polycarbonate membrane with a surface area of 4.71 cm^2 and a pore diameter of 0.4 µm (Costar, Corning, NY, USA) at a final seeding density of 1 × 10^6 cells/insert, cultured for 21 days. Caco-2 cell monolayers were washed with warm HBSS medium (pH 7.4) and then digested samples of isorhamnetin aglycone or O. ficus-indica extract were added to the apical side (AP: 1.5 mL), whereas the receiving compartment or basolateral side (BL: 2.5 mL) contained the corresponding volume of HBSS. Plates with transwell inserts were incubated at 37 °C in an orbital shaking incubator at 100 rpm. Aliquots of 1 mL were withdrawn from both compartments at 15, 30, 60 and 120 min, and fresh HBSS was added to replace the withdrawn volume. Samples were immediately frozen and preserved at −20 °C until HPLC analysis. All experiments were performed in triplicate.
(§2) The apparent permeability coefficient (Papp) was calculated from the cumulative amount permeated versus the time profile according the following Equation (1): Papp = (dQ/dt) × (V/A × C0) (1) where dQ/dt is the change in drug concentration in the receiver solution (µM/s), V represents the volume of the solution in the receiving compartment (mL), A denotes the membrane surface area (cm^2), and C0 is the initial concentration in the donor compartment (µM).
(§3) The integrity of the monolayers was measured at the beginning and the end of the experiment using the paracellular permeability of lucifer yellow (LY). Fluorescence was measured at 530 nm (emission) and 485 nm (excitation) using a microplate reader (Synergy HT, BioTek, Winooski, VM). The data from membranes displaying an LY apparent permeability coefficient (Papp) > 1 × 10^−6 cm/s were excluded.

[2] = test system: Caco-2/HT-29 cell monolayer; assay: as above; format: in vitro ADME, human; conditions: for Efflux ratio [Papp(BL-AP)/Papp(AP-BL)]: Caco-2/HT-29 (Figure 2b); for Apparent permeability coefficient apical to basolateral, Papp(AP-BL): Caco-2/HT-29 co-culture, digested samples
Procedure: as §1, §2, §3

Caco-2 cell monolayer = conditions: cited from earlier work
[3] = cited from earlier work; for Recovery after intestinal digestion: ref Ydjedd et al. [40]
[4] = Simulated in vitro digestion (oral, gastric, intestinal): recovery percentage / bioaccessibility; format: in vitro ADME; conditions: human-simulated digestion
Procedure: The simulated in vitro digestion model was performed based on the methodology described by Garrett et al., with some modifications. Isorhamnetin aglycones and O. ficus-indica extract were subjected to digestion in triplicate. A three-step procedure was applied to simulate the digestive processes in the mouth, stomach, and small intestine. The digestion started with an amount of extract that contained an equivalent of 10 mg of isorhamnetin (60 mg) or 10 mg of isorhamnetin standard. An α-amylase solution (75 Units/mL) was added to 20 mL of solution, adjusted to pH 6.9, which was incubated for 10 min. This mixture was shaken using a VWR® Incubating orbital shaker (Thorofare, NJ, USA) for 10 min at 37 °C and 55 rpm. The gastric digestion started by adjusting the pH to 2 with 1 M HCl and, after, 2 mL of porcine-pepsin solution was added (40 mg/mL in 0.1 M HCl). This mixture was shaken in an incubator for 1 h at 37 °C and 95 rpm. For the intestinal digestion, the solution was previously adjusted to pH 5.3 with 0.9 M NaHCO3 and then a mixture of bile salts and pancreatin (6 mL containing porcine-pancreatin (2 mg/mL), and bile salts (12 mg/mL) dissolved in a NaHCO3 solution (100 mM), were added. Concentrations of pancreatin and bile extract in the final solution were 0.4 and 2.4 mg/mL, respectively. Then, the solution was adjusted to pH 7.5 by adding 1N NaOH. The mixture was shaken in an incubator for 2 h at 37 °C and 95 rpm. The enzyme reaction was inactivated by placing the sample in a hot water bath (80 °C for 2 min). At the end of the process, the digested samples were centrifuged at 13,000× g and 4 °C for 5 min (Thermo Scientific SL 16R centrifuge, Osterode, Germany). The resulting supernatant, which was considered the bioaccessible or absorbable fraction, was recovered. The recovery percentage of each compound was calculated based on the concentration in the supernatant recovered after each phase (oral, gastric, and intestinal) of the in vitro digestion. This fraction was also tested for permeability and potential bioavailability of the isorhamnetin glycosides present in the O. ficus-indica extract.

[5] = Plasma stability / pharmacokinetics after intravenous dose in rats; set-up: species or system rat; conditions: male, Wistar, in vivo, intravenous dose 2 mg/kg
Procedure: Twenty-seven male Wistar rats, weighing approximately 200 g (eight weeks old), were divided in nine groups of three animals each. One group was taken as a control and received only a saline solution through the caudal vein. Four groups received an intravenous dose (2 mg/kg) of the O. ficus-indica extract and the last four groups received the commercial isorhamnetin standard. The dosage was determined based on results previously reported by Antunes-Ricardo et al.. Animals were anaesthetized with ketamine/xilazyne (60 mg/kg; 10 mg/kg), and then blood was extracted by intracardiac puncture at different sampling times (0.25, 0.5, 1 and 1.5 h). This procedure was randomized to avoid any bias results. After blood extraction, the animals were sacrificed by cervical dislocation. Plasma was obtained as previously described (see Section 4.6) and the samples were stored at −20 °C until analysis.
Plasma samples were spiked with 25 µL of quercetin (30 µg/mL) as an internal standard. Then, plasma samples were submitted to an acid hydrolysis with 2 M HCl for 180 min at 80 °C. Then, samples were extracted with 100% methanol (10:1, v/v), centrifuged, and the resulting supernatants were quantified by HPLC-PDA. The area under the concentration-time curve (AUC0−1.5 h) was calculated based on the linear trapezoidal method. The elimination half-life (t1/2) was determined by linear regression of the terminal portion of the plasma concentration-time data. The plasma clearance (CLplasma) was calculated by multiplying the volume of distribution, Vd, by the elimination constant, Kel, according to the following Equation (3): CLplasma: Vd × Kel (3)

[6] = set-up: method as in Duan et al. [24]; conditions: ref Duan et al. [24]; cited from earlier work
[7] = cited from earlier work
[8] = Caco-2 monolayer, ref Xie et al. [47]
[9] = intestinal phase, pH 7.5, pancreatin and bile salts

## COc1cc(-c2oc3cc(O)cc(O)c3c(=O)c2O)ccc1O [I, isorhamnetin]
[1]; Caco-2/HT-29 (Figure 2b), read-out: Efflux ratio [Papp(BL-AP)/Papp(AP-BL)]
  efflux ratio at 120 min: 0.6
[1]; Caco-2/HT-29 co-culture, digested samples, read-out: Apparent permeability coefficient apical to basolateral, Papp(AP-BL)
  Papp A→B at 120 min: 4.74 ± 0.02 ×10⁻⁶ cm/s
[2]; Caco-2/HT-29
  Papp basolateral to apical relative to Papp apical to basolateral: two-fold lower
Caco-2 cell monolayer; Caco-2 cells, ref Lan et al. [35]
  Papp(AP-BL): 2.28 ± 0.09 × 10^−6 cm/s
Caco-2 cell monolayer; Caco-2 monolayer, tested alone, ref Xie et al. [47]
  Papp: 1.61 ×10⁻⁶ cm/s
Caco-2 cell monolayer; [8]
  Increase of Papp in combination with kaempferol: 1.33 fold
  Increase of Papp in combination with quercetin: 2.38 fold
[3]; from almond skins, ref [19]
  Bioaccessibility after a simulated digestion: 25.1 ± 7.0%
[4]; intestinal phase, pH 7.5, pancreatin and bile salts, read-out: Recovery percentage after intestinal digestion phase
  recovery at 2 h, 0.33 mg/mL: 74.3 ± 7.4%
[4]; oral phase, pH 6.9, α-amylase, read-out: Recovery percentage after oral digestion phase
  recovery at 10 min, 0.5 mg/mL: 35 ± 2.4%
[4]; simulated in vitro digestion, gastric phase, pH 2, pepsin, read-out: Recovery percentage after gastric digestion phase
  recovery at 1 h: 49 ± 3.4%
[5]; rat plasma, isorhamnetin after acid hydrolysis, read-out: AUC0–1.5 h of isorhamnetin
  AUC(0-t): 104 ± 4.89 µM·h
[5]; rat plasma, read-out: Elimination half-life t1/2 (converted)
  half-life: 38.4 min
[5]; rat, read-out: CL plasma
  clearance: 7.44 ± 1.21 mL/min
[6]
  pKa: 6.3

## O=c1c(O[C@@H]2O[C@H](CO)[C@H](O)[C@H](O)[C@H]2O)c(-c2ccc(O)c(O)c2)oc2cc(O)cc(O)c12 [Quercetin-3-galactoside]
Caco-2 cell monolayer; ref Duan et al. [24]
  Efflux ratio compared with quercetin-3-glucoside: higher efflux ratio
[7]; after ingestion of cranberry juice, ref Wang et al. [55]
  Concentration in plasma: 10 to 15 ng/mL

## O=c1cc(-c2ccccc2)oc2cc(O)cc(O)c12 [chrysin]
Caco-2 cell monolayer; ref [36]
  Permeability basolateral to apical relative to apical to basolateral: two-fold higher

## COc1ccc([C@@H]2CC(=O)c3c(O)cc(O[C@@H]4O[C@H](CO)[C@@H](O)[C@H](O)[C@H]4O)cc3O2)cc1O [hesperetin-7-O-glucoside]
[7]; human, in vivo
  Bioavailability higher than hesperetin-7-O-rutinoside: 76%
[7]; in vivo, po
  tmax: 30 ± 6 min
[7]; in vivo
  Improvement of bioavailability on removing the rhamnose moiety from hesperetin-7-glucosyl-rhamnoside: two-fold

## COc1ccc([C@@H]2CC(=O)c3c(O)cc(O[C@@H]4O[C@H](CO[C@@H]5O[C@@H](C)[C@H](O)[C@@H](O)[C@H]5O)[C@@H](O)[C@H](O)[C@H]4O)cc3O2)cc1O [hesperetin-7-O-rutinoside]
[7]; after oral consumption, ref [32]
  tmax: 288 ± 132 min

## C[C@@H]1O[C@@H](Oc2c(-c3cc(O)c(O)c(O)c3)oc3cc(O)cc(O)c3c2=O)[C@H](O)[C@H](O)[C@H]1O [myricetin-rhamnoside]
[3]; ref Ortega et al. [39]
  Recovery after a simulated digestion process: 51.5%
[3]
  Recovery after intestinal digestion: 40.2%

## O=c1c(O)c(-c2ccc(O)c(O)c2)oc2cc(O)cc(O)c12 [quercetin as aglycone, quercetin]
[7]; in humans, ref [54]
  AUC0–24 h: 2500 ± 2200 ng·h/mL
[7]; ref Petersen et al. [56]
  AUC0–1440 min of quercetin: 62 ± 12 µmol·min/L

## C[C@@H]1O[C@@H](Oc2c(-c3ccc(O)c(O)c3)oc3cc(O)cc(O)c3c2=O)[C@H](O)[C@H](O)[C@H]1O [quercetin rhamnoside]
[3]
  Recovery after intestinal digestion: 47.9%

## isorhamnetin-3-O-glucosyl-pentoside [IGP]
[2]
  Efflux ratio [Papp(BL-AP)/Papp(AP-BL)]: 3.0
[4]; gastric phase, pH 2, pepsin
  Recovery percentage after gastric digestion phase: 93.5 ± 3.3 ^A,a %
[4]; [9]
  Recovery percentage after intestinal digestion phase: 73.3 ± 3.5 ^A,b %
[4]; oral phase, pH 6.9, α-amylase
  Recovery percentage after oral digestion phase: 96.6 ± 4.7 ^A,a %

## isorhamnetin-3-O-glucosyl-rhamnoside [IGR]
[2]
  Efflux ratio [Papp(BL-AP)/Papp(AP-BL)]: 3.1
  Apparent permeability coefficient apical to basolateral, Papp(AP-BL): 1.72 ± 0.01 × 10^−6 cm/s
Caco-2 cell monolayer; Caco-2 monolayers, ref Tian et al. [23]
  Papp(AP-BL): 2.9e-07 cm/s
[4]; gastric phase, pH 2, pepsin
  Recovery percentage after gastric digestion phase: 96.8 ± 0.9 ^A,a %
[4]; [9]
  Recovery percentage after intestinal digestion phase: 81.0 ± 4.6 ^A,b %
[4]; oral phase, pH 6.9, α-amylase
  Recovery percentage after oral digestion phase: 99.6 ± 3.8 ^A,a %

## isorhamnetin-3-O-glucosyl-rhamnosyl-pentoside [IGRP]
[2]
  Efflux ratio [Papp(BL-AP)/Papp(AP-BL)]: 5.2
  Apparent permeability coefficient apical to basolateral, Papp(AP-BL): 1.28 ± 0.02 × 10^−6 cm/s
[4]; gastric phase, pH 2, pepsin
  Recovery percentage after gastric digestion phase: 96.2 ± 0.4 ^A,a %
[4]; [9]
  Recovery percentage after intestinal digestion phase: 80.3 ± 1.9 ^A,b %
[4]; oral phase, pH 6.9, α-amylase
  Recovery percentage after oral digestion phase: 93.8 ± 5.2 ^A,a %

## isorhamnetin-3-O-glucosyl-rhamnosyl-rhamnoside [IGRR]
[2]
  Efflux ratio [Papp(BL-AP)/Papp(AP-BL)]: 5.9
  Apparent permeability coefficient apical to basolateral, Papp(AP-BL): 1.03 ± 0.04 × 10^−6 cm/s
[4]; gastric phase, pH 2, pepsin
  Recovery percentage after gastric digestion phase: 96.0 ± 4.4 ^A,a %
[4]; [9]
  Recovery percentage after intestinal digestion phase: 79.5 ± 1.8 ^A,b %
[4]; oral phase, pH 6.9, α-amylase
  Recovery percentage after oral digestion phase: 99.1 ± 3.8 ^A,a %

## quercetin-3-glucosyl-rhamnoside
[3]; ref Tenore et al. [37]
  Decrease in levels after intestinal digestion phase compared with gastric step: 18.6%
